Columns and labels:
[1] = test system: TOV112D; experiment: Cell-based TOV112D activity (cell growth inhibition assay); set-up: species or system human
[2] = test system: HEK293 cells; experiment: Intracellular [Zn2+]free imaging with FluoZin-3-AM in HEK293 cells; type: cell-based
Experimental: (§1) To minimize the potential for Zn^2+ contamination and contributions from poorly defined elements in complete media (e.g. FBS), cells were treated and imaged in Ca^2+ and Mg^2+-free Earle's Balanced Salt Solution supplemented with 10 mM HEPES pH 7.4 (EBSS/H (−)Ca/Mg). Excess ZnCl2 with the Zn^2+ ionophore pyrithione (PYR) was used as a positive control. Excess membrane-permeable Zn^2+ chelator N,N,N′,N′-tetrakis(2-pyridylmethyl)ethane-1,2-diamine (TPEN) was used as a negative control.
To normalize for differential dye loading, cells were then sequentially treated with excess PYR/ZnCl2, imaged, treated with TPEN, and imaged again. PYR/ZnCl2 and TPEN served to saturate and apoize the intracellular FZ3, respectively.
(§2) [formula] where Ji is the initial flux, ΔF/Δt is the slope of the fit line, Fmax is RZ-3 fluorescence in the presence of saturating Zn^2+ and 1% TritonX-100, Fmin is RZ-3 fluorescence in the presence of excess EDTA and 1% TritonX-100, [RZ3] is the concentration of encapsulated RZ-3, and SA/Vol is the surface area to volume ratio calculated assuming hollow spheres of the mean diameter determined by DLS. Intracellular [Zn^2+]free Imaging TOV112D or HEK293 cells (40,000 cells/well) were plated on either 8-well BD Falcon chambered culture slides (Corning Life Sciences) or 8-chambered #1.5 Nunc Lab-Tek II chambered coverglasses (Thermo Scientific) treated with poly-L-lysine. After 48 h, cells were washed 2×5 m in serum-free media and incubated with 1 μM FZ3-AM for 40 m at 37° C. Cells were then washed 2×5 m in either EBSS/H (−)Ca/Mg or phenol-red free DMEM+10% FBS containing the indicated treatments for 20 m before imaging. For nuclear colocalization, 1 μg/mL Hoechst 33342 was also included. Cells were imaged using a Zeiss LSM510 META NLO confocal microscope equipped with 37° C. environmental control chamber. FZ3 and Hoechst 33342 were excited at 488 nm (argon laser) and 790 nm (Chameleon Ti:sapphire laser), respectively. To determine the kinetics of fluorescence change, each background-subtracted image in the time-lapse series was integrated in ImageJ and normalized to the integrated fluorescence of the first frame after treatment. For quantification of intracellular [Zn^2+]free, each cell was analyzed in the treated, 50 μM PYR/ZnCl2 (1:1), and 100 μM TPEN images by taking the mean fluorescence of an ROI inside the cell subtracted by an ROI immediately outside the cell measured in ImageJ. The [Zn^2+]free for each cell was then calculated by Eqn 2:
[formula] […] To minimize the effects of outliers the lowest and highest 5% of cells in each series were rejected, and the remaining values averaged to give the value from that experiment. The number of cells analyzed in each trial ranged from 54-163. […]

[3] = Liposome import assay (RZ-3 fluorescence); conditions: for Zn2+ transport into liposomes: external [Zn2+]free 10 μM
Experimental: DOPC-liposomes were prepared by film rehydration and extrusion followed by gel filtration and diluted to an OD600=0.06 in buffer. The size distribution of the liposomes was determined by dynamic light scattering (DLS) using a Malvern Zetasizer Nano ZS. Fluorescence measurements were taken on a Horiba Fluoromax-4 spectrofluorimeter in a 5×5 mm quartz cuvette with λex/λem=550/572 nm for RZ-3 and 490/515 nm for calcein. Initial Zn^2+ import/export was quantified by fitting the first 10-30 s of data after each treatment to a line and converted to units of flux using the following Eqn 1:
as §2, with “For nuclear colocalization, 1 μg/mL Hoechst 33342 was also included. Cells were imaged using a Zeiss LSM510 META NLO confocal microscope equipped with 37° C. environmental control chamber. FZ3 and Hoechst 33342 were excited at 488 nm (argon laser) and 790 nm (Chameleon Ti:sapphire laser), respectively.” left out, “2: […]” for “2:”

[4] = Zn2+ binding affinity
Experimental: It can function as an ionophore in conditions of the liposome experiments where external [Zn^2+]free was 10 μM. However, in complete media containing 10% fetal bovine serum (FBS), Zn^2+-binding proteins from the serum (e.g. albumin) necessarily compete for Zn^2+ with any putative MC, making the effective [Zn^2+]free much lower than [Zn^2+]total.
FZ3-AM, RZ-3 (K^+ salt), and cell culture media were purchased from Life Technologies. DOPC was purchased from Avanti Polar Lipids. ZMC1 and A6 were similarly obtained. […] HEK293 and TOV112D cells were purchased from ATCC and maintained in DMEM+GlutaMAX with 10% FBS and 1 mg/mL penicillin-streptomycin under a 5% CO2 atmosphere at 37° C. All non-cell based experiments were conducted in 50 mM Tris pH 7.2, 0.1 M NaCl at 25° C.

[5] = test system: TOV112D cells; experiment: Intracellular [Zn2+]free imaging with FluoZin-3-AM in TOV112D cells; type: cell-based; conditions: ZMC1 alone (no ZnCl2), EBSS/H (−)Ca/Mg
Experimental: as §1
To normalize for differential dye loading, cells were then sequentially treated with excess PYR/ZnCl2, imaged, treated with TPEN, and imaged again. […]
[formula] where Ji is the initial flux, ΔF/Δt is the slope of the fit line, Fmax is RZ-3 fluorescence in the presence of saturating Zn^2+ and 1% TritonX-100, Fmin is RZ-3 fluorescence in the presence of excess EDTA and 1% TritonX-100, [RZ3] is the concentration of encapsulated RZ-3, and SA/Vol is the surface area to volume ratio calculated assuming hollow spheres of the mean diameter determined by DLS. […] To determine the kinetics of fluorescence change, each background-subtracted image in the time-lapse series was integrated in ImageJ and normalized to the integrated fluorescence of the first frame after treatment. […] The [Zn^2+]free for each cell was then calculated by Eqn 2:
[formula] […] The number of cells analyzed in each trial ranged from 54-163. […]

[6] = HEK293 (non-cancer, p53-WT), FZ3-AM, complete media, confocal microscopy

Compound	Activity TOV112D [1]	further results
C/C(=N\NC(=S)N1CCC1)c1cnccn1 [Compound 1, (E)-N′-(1-(Pyrazin-2-yl)ethylidene)azetidine-1-carbothiohydrazide]	++	
C/C(=N\NC(=S)N1CCC1)c1cc(N(C)C)ccn1 [Compound 2, (E)-N′-(1-(4-(dimethylamino)pyridin-2-yl)ethylidene)azetidine-1-carbothiohydrazide]	+++	
C/C(=N\Nc1nc2ccccc2s1)c1ccccn1 [Compound 3, (E)-2-(2-(1-(pyridin-2-yl)ethylidene)hydrazinyl)benzo[d]thiazole]	+++	
C/C(=N\Nc1nc2ccccc2o1)c1ccccn1 [Compound 4, (E)-2-(2-(1-(pyridin-2-yl)ethylidene)hydrazinyl)benzo[d]oxazole]	+++	
C/C(=N\Nc1nc2ccccc2[nH]1)c1ccccn1 [Compound 9, (E)-2-(2-(1-(pyridin-2-yl)ethylidene)hydrazinyl)-1H-benzo[d]imidazole]	+++	
C/C(=N\Nc1nc2ccccc2n1C)c1ccccn1 [Compound 10, (E)-1-methyl-2-(2-(1-(pyridin-2-yl)ethylidene)hydrazinyl)-1H-benzo[d]imidazole]	+++	
CC/C(=N\Nc1nc2ccccc2s1)c1ccccn1 [Compound 11, (E)-2-(2-(1-(pyridin-2-yl)propylidene)hydrazinyl)benzo[d]thiazole]	+++	
CC(C)/C(=N\Nc1nc2ccccc2s1)c1ccccn1 [Compound 12, (E)-2-(2-(2-methyl-1-(pyridin-2-yl)propylidene)hydrazinyl)benzo[d]thiazole]	+	
C/C(=N\Nc1nc2ccccc2s1)c1ncc[nH]1 [Compound 13, (E)-2-(2-(1-(1H-imidazol-2-yl)ethylidene)hydrazinyl)benzo[d]thiazole]	+	
C/C(=N\Nc1nc2cc(F)ccc2s1)c1ccccn1 [Compound 14, (E)-5-fluoro-2-(2-(1-(pyridin-2-yl)ethylidene)hydrazinyl)benzo[d]thiazole]	+++	
C/C(=N\Nc1nc2ccc(F)cc2s1)c1ccccn1 [Compound 15, (E)-6-fluoro-2-(2-(1-(pyridin-2-yl)ethylidene)hydrazinyl)benzo[d]thiazole]	+++	
C/C(=N\NC(=O)N1CCC1)c1ccccn1 [Compound A6]		increase of intracellular [Zn2+]free [2, 6]: did not; Zn2+ transport into liposomes [3]: shuttled Zn^2+ into the liposomes; Kd [4]: 1.1 µM
O=C(O)CN(CC(=O)O)CC(=O)O [NTA]		increase of intracellular [Zn2+]free [2, 6]: did not; Zn2+ transport into liposomes [3]: did not
C/C(=N\NC(=S)N1CCC1)c1ccccn1 [ZMC1]		increase of intracellular [Zn2+]free [2, 6]: increased; increase of intracellular [Zn2+]free ([2]; HEK293, ZMC1 alone (no ZnCl2), EBSS/H (−)Ca/Mg): neither cell type showed an increase; increase of intracellular [Zn2+]free [5]: neither cell type showed an increase; RZ-3 fluorescence after reversal of the [Zn2+]free gradient (Zn2+ export) ([3]; large excess of EDTA outside of the liposomes, then ZMC1 added): time dependent decrease

From patent US10729671B2, “Zinc complexes of hydrazones and (thio)semicarbazones and their use for the treatment of cancer” (RUTGERS, THE STATE UNIVERSITY OF NEW JERSEY, priority 2015, dated 2020)
